Our source for the remaining binding values is publication PMC7486443, “Generation of Phenothiazine with Potent Anti-TLK1 Activity for Prostate Cancer Therapy” (iScience, 2020).

Some targets named below: CDKL3 (Homo sapiens, UniProt Q8IVW4); PIK3CA(I800L) (Homo sapiens, UniProt P42336, I800L); EPHA7 (Homo sapiens, UniProt Q15375); SLK (Homo sapiens, UniProt Q9H2G2); SNRK (Homo sapiens, UniProt Q9NRH2); PRKD3 (Homo sapiens, UniProt O94806); CDKL5 (Homo sapiens, UniProt O76039); PRKX (Homo sapiens, UniProt P51817); PKNB(M.tuberculosis) (Mycobacterium tuberculosis, UniProt P9WI81); PIK3CA(H1047L) (Homo sapiens, UniProt P42336, H1047L); CDKL2 (Homo sapiens, UniProt Q92772); BTK (Homo sapiens, UniProt Q06187); EGFR(G719S) (Homo sapiens, UniProt P00533, G719S).

Experiment in all cases: biochemical
Common to all, as to parameters: DiscoverX KINOMEscan scanMAX competition binding panel, single concentration, percent of control; remaining binding: dose or concentration left out as unconfirmed
Holding throughout (settings): KINOMEscan binding, percent of control; read-out: Table S4_SCANMAX REPORT - related to Fig. 1 / Percent Control

The target in the next assay is T1, YSK1 (Homo sapiens, UniProt O00506).
T1 construct: gene STK25

For another assay, the target named is T2, MRCKA (Homo sapiens, UniProt Q5VT25).
T2 construct: gene CDC42BPA

A further assay concerns the target T3, LOK (Homo sapiens, UniProt O94804).
T3 construct: gene STK10

For assay [1], the target named is T4, RSK3(Kin.Dom.2-C-terminal) (Homo sapiens, UniProt Q15349).
T4 construct: gene RPS6KA2; Kin.Dom.2-C-terminal

The target of the next assay is T5, PFPK5(P.falciparum) (Plasmodium falciparum, UniProt P61075).
T5 construct: gene MAL13P1.279

Sequence of PRKD3 (O94806 whole entry): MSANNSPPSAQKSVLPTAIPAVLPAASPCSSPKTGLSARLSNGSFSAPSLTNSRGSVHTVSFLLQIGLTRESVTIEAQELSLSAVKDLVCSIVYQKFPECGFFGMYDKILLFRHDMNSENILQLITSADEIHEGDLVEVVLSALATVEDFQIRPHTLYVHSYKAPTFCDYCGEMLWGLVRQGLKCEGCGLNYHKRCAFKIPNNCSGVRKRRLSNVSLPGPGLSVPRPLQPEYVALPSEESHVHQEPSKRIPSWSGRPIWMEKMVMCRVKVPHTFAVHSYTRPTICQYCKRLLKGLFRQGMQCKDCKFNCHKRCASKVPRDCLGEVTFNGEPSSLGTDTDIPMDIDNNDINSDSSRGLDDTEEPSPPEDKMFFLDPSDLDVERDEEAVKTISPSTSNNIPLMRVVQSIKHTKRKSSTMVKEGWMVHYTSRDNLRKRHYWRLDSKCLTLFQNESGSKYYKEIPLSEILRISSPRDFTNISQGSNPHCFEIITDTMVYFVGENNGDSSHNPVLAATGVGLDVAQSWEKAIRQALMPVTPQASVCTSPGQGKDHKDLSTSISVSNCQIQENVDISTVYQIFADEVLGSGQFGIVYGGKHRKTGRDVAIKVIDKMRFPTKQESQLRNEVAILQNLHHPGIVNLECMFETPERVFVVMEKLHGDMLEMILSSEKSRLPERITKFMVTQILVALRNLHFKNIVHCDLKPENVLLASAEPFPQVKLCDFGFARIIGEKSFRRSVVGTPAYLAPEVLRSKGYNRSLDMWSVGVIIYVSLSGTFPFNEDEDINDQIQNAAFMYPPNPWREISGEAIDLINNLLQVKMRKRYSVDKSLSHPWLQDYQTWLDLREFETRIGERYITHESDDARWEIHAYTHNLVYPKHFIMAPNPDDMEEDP
T1 sequence (O00506 whole entry): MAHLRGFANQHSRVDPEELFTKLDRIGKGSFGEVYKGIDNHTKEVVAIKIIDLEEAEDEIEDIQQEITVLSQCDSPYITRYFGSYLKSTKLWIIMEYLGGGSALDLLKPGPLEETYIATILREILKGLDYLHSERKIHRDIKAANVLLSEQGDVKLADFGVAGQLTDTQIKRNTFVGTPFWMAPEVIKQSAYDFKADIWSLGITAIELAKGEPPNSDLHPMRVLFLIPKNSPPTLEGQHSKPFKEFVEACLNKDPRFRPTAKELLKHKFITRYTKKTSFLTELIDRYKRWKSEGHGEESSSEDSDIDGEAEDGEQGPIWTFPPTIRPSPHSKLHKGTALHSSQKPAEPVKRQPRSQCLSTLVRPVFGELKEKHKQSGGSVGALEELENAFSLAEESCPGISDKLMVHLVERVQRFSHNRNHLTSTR
T4 sequence (Q15349 whole entry): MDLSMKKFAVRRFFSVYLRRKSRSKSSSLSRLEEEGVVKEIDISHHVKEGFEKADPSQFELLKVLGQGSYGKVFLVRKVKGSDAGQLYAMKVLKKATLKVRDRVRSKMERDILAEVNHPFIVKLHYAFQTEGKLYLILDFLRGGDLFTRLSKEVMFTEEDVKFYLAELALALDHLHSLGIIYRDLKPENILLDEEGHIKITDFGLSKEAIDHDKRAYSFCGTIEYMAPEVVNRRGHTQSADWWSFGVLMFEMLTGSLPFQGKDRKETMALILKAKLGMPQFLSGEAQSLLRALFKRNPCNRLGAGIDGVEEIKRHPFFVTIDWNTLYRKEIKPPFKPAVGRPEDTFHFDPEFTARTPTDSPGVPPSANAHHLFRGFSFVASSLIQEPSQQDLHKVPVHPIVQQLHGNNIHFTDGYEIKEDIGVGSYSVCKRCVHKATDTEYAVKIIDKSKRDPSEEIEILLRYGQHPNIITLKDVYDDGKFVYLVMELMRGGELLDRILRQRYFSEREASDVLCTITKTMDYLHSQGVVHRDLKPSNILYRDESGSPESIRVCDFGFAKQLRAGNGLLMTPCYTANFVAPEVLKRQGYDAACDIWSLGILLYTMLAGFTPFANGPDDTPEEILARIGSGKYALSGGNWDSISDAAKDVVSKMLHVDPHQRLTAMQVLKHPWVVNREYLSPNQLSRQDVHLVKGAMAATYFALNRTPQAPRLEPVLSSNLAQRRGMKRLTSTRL
T2 sequence (Q5VT25 whole entry): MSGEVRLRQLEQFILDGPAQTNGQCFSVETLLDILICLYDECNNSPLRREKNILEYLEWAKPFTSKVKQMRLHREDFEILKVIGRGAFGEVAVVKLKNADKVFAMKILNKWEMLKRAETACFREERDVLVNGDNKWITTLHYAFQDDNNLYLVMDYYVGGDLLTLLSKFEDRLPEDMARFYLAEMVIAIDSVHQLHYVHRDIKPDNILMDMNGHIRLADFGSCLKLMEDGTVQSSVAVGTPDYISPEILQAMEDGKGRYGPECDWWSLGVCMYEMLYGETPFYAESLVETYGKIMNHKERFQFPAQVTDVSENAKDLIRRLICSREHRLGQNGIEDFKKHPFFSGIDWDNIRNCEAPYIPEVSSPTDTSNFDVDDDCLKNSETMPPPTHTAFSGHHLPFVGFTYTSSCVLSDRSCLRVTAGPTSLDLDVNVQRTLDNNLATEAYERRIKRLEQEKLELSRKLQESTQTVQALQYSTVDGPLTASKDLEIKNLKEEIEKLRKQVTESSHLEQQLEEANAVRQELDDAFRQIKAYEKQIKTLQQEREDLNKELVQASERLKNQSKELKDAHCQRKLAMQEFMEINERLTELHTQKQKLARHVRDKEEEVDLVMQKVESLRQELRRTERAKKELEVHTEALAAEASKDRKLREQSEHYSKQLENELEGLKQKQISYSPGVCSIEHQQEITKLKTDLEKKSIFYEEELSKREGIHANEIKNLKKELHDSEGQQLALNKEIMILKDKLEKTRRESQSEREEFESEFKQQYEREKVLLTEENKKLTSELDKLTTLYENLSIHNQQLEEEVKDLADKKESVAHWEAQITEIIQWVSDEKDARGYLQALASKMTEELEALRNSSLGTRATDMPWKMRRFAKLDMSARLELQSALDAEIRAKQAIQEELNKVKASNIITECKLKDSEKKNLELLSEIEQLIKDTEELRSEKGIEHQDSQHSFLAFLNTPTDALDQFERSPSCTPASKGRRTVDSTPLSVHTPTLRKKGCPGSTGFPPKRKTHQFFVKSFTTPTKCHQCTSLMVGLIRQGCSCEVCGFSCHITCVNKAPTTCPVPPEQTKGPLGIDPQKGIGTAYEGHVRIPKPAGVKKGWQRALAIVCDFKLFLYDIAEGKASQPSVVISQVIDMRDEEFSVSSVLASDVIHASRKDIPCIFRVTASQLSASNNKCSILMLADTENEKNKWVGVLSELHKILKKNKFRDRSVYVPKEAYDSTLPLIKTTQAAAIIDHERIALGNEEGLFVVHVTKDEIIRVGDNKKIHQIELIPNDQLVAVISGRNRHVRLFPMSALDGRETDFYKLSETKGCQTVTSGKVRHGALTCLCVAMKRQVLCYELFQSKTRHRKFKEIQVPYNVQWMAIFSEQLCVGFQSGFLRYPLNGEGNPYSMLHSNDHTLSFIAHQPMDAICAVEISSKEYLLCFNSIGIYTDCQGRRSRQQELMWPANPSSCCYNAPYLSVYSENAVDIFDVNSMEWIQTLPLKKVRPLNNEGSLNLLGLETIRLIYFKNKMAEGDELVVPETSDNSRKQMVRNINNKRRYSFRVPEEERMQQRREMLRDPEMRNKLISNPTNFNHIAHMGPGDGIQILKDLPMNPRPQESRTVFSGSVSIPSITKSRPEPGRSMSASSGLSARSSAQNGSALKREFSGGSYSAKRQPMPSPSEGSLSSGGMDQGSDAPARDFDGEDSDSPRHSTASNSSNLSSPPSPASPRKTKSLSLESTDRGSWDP
Sequence of EGFR(G719S) (P00533 whole entry G719S): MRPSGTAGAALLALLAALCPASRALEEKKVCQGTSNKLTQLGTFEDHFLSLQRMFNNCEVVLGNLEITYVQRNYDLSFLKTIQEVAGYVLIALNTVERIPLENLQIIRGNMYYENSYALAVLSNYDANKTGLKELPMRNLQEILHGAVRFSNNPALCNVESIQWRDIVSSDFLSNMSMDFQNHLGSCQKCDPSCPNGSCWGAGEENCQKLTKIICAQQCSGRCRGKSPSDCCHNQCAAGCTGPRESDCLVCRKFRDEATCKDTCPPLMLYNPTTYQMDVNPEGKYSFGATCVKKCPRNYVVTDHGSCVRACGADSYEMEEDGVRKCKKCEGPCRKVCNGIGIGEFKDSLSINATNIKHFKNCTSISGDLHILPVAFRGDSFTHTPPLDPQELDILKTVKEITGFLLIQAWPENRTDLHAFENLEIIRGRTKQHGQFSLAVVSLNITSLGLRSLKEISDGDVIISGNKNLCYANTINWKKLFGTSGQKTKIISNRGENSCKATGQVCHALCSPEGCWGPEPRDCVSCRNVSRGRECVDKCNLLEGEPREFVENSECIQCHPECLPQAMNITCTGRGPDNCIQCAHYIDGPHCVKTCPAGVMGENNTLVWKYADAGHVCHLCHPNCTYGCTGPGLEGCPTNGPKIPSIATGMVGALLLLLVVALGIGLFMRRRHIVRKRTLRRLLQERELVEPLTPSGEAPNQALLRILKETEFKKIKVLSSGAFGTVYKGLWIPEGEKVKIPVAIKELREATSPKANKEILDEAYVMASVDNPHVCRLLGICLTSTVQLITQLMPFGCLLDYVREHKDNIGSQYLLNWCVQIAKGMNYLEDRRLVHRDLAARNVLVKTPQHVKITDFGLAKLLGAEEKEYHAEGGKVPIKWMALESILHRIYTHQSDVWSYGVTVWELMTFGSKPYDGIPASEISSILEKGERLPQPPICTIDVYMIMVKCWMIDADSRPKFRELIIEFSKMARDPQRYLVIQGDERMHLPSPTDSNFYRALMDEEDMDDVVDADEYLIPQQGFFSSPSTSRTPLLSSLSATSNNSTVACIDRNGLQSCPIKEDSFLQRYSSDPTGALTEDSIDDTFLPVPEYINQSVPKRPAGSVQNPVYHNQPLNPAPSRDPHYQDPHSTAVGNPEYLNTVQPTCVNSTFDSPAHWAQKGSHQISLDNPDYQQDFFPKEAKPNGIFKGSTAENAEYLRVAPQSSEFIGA

For the compound `c1ccc2c(c1)Sc1ccccc1N2CCN1CCOCC1` [J54], the remaining binding on CDKL3 was found to be 100%; on PIK3CA(I800L), 99%; at EPHA7, 100%; on YSK1, 97%; at SLK it was 100%; at SNRK, 59%. The remaining binding at PRKD3 amounted to 100%; on MRCKA, 99%; at CDKL5, 100%; on PRKX it was 91%; on LOK, 100%; on PKNB(M.tuberculosis), 87%. Also, the remaining binding on PIK3CA(H1047L) amounted to 100%; at CDKL2 it was 100%; in assay [1], 97%; at BTK it was 97%; on PFPK5(P.falciparum) it was 98%; on EGFR(G719S), 99%.
